Laboratory results taken from paper PMC6290340, “Discovery of Antiamebic Compounds That Inhibit Cysteine Synthase From the Enteric Parasitic Protist Entamoeba histolytica by Screening of Microbial Secondary Metabolites” (Frontiers in Cellular and Infection Microbiology, 2018).
Where two headings read alike, the source gives them in different places.

How the values were obtained:
[1] = tested on: E. histolytica trophozoites; parameters: method as in Mori et al., 2015; details: ref Mori et al., 2015, cited from earlier work
[2] = tested on: E. histolytica trophozoites; test: In vitro antiamebic activity (WST-1), L-cysteine-deprived or L-cysteine-supplemented BI-S-33 medium; type: cell-based, Entamoeba histolytica; details: Cys (–) medium, 2.5 mM pencolide
[3] = type: physicochemical; details: 9 mM L-cysteine, 37°C, 2 days
Method: After mixing well with plate mixer for 3 min, the plate was incubated at 37°C axenically with Anaeropak (Mitsubishi Chemical, Tokyo, Japan) for 2 days. The reaction mixtures were evaluated by HPLC analysis (column, Senshupak Pegasil ODS SP100, 4.6 φ × 250 mm, Senshu Scientific Co. Ltd., Japan; solvent, MeCN-H2O gradient system, 10–90% MeCN per 0–30 min; flow rate, 1.0 ml/min; detection, UV at 210 nm) and LC-ESI-MS analysis (column, Capcellcore C18, 2.1 φ × 50 mm, Osaka soda, Japan; solvent, MeCN-H2O-0.1% HCO2H gradient system, 5–100% MeCN per 0–8 min, 100%MeCN per 8–10 min; flow rate, 0.4 ml/min; ESI-MS data was obtained by JEOL JMS-T100LP, JEOL, Japan).

[4] = tested on: E. histolytica trophozoites; test: In vitro antiamebic activity (WST-1), L-cysteine-deprived or L-cysteine-supplemented BI-S-33 medium; type: cell-based, Entamoeba histolytica; details: for IC50: Entamoeba histolytica; for Anti-amebic activity Selectivity Cys(+)/Cys(–): ED50 Cys(+)/ED50 Cys(–), cysteine dependence index; for Anti-amebic activity ED50 Cys (+): L-cysteine (9 mM) supplemented BI-S-33 medium; for Anti-amebic activity ED50 Cys (+) / Anti-amebic activity ED50 Cys (–): 48 hrs; for Anti-amebic activity ED50 Cys (–): L-cysteine-deprived BI-S-33 medium
Method: Trophozoites were harvested in a logarithmic growth phase 3 or 4 days after inoculation of 1/30–1/12 volume of the seed culture. After the cultures were chilled on ice for 5 min, trophozoites were collected by centrifugation at 500 × g for 10 min at 4°C. The trophozoites were resuspended in BI-S-33 medium containing 1% (v/v) penicillin/streptomycin (Life Technologies, Grand Islands, NY, U.S.A.), with a final concentration of 5 × 10^4 cells/ml. […] The plates were incubated under anaerobic conditions with Anaeropak for 48 hrs. After incubation, the medium was removed and 90 μl of pre-warmed Opti-MEM I (Life Technologies) and 10 μl of WST-1 solution (Dojindo, Kumamoto, Japan) were added to each well. Optical absorbance at 450 nm was measured on a photospectrometer (SH-9000Lab, Corona Electric, Ibaraki, Japan). Metronidazole (Sigma-Aldrich, MO, USA) was used as positive control. Antiamebic assays were done in triplicate. […] The cysteine dependence of the antiamebic activities was calculated as ED 50Cys(+) /ED 50Cys(-) and expressed as “cysteine dependence index.”
Approximately 2 μl of the compound solution (1 mg/ml, in DMSO) of the Kitasato Natural Products Library or 10 μl of EtOH extracts of microbial culture broth extracts was added to each well of E. histolytica trophozoite-seeded 96-well microtiter plates (final concentrations, 10 μg/ml). Compounds showing more than 80% growth inhibition and having no cytotoxicity against MRC-5 cells were selected for further evaluation.

[5] = Cytotoxicity against MRC-5 cells (WST-8); type: cell-based, Human; details: human, MRC-5 fibroblast cells; 2 days
Method: (§1) Human fibroblast cell line, MRC-5, was used for cytotoxicity evaluation. MRC-5 cells were plated on 96-well flat bottom plates at a density of 1.5 × 10^4 cells/well in 100 μl of MEM medium each well (Life Technologies) containing 10% fetal bovine serum (Hana-nesco Bio, Tokyo, Japan) and 1% penicillin-streptomycin (Life Technologies) and incubated at 37°C with 5% CO2 for 2 days. Test compounds in 5 μl of 50% DMSO and 50% H2O and 100 μl of MEM medium were mixed and added to each well. After cultivation at 37°C with 5% CO2 for 2 days, cell density and morphological changes were observed under a microscope. After observation, 10 μl of WST-8 solution (Dojindo) was added to the cells and the plate was incubated at 37°C with 5% CO2 for 2 h. Then, absorbance at 450 nm was measured as above. Cytotoxicity against MRC-5 cells was measured in triplicate. ED50 values were calculated as previously described (Arita-Morioka et al., [2015]).

[6] = tested on: MRC-5 cells; test: Cytotoxicity against MRC-5 cells (WST-8); type: cell-based, Human; details: MRC-5 relative to E. histolytica in Cys (–)
Method: as §1

[7] = molecular target: E. histolytica CS1 (Entamoeba histolytica, UniProt O15570); test: CS inhibitory activity, recombinant CS1; type: biochemical
Chain of E. histolytica CS1 (O15570 entry or part of it): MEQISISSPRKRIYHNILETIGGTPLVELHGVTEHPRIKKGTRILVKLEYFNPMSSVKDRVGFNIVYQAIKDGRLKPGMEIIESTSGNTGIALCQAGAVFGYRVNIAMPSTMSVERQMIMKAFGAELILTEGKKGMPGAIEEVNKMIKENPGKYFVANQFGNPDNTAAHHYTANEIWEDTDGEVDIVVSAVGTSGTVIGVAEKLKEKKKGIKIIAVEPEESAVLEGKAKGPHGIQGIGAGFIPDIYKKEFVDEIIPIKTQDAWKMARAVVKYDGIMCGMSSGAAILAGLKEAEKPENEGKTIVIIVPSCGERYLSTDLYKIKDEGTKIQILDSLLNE
Method: Pencolide (5.5 mg) was dissolved in 1 ml of 0.25 M L-cysteine aqueous solution (L-cysteine HCl salt in H2O) and left at room temperature for overnight. The reaction mixture was purified by Seppak ODS (Waters co., Massachusetts, USA) and the cysteine adducts were eluted with 30%MeCN-70%H2O containing 0.1%TFA. The obtained fraction was further purified by preparative HPLC (column, Senshupak Pegasil ODS SP100, 20 φ × 250 mm, Senshu Scientific Co. Ltd.; solvent, 0.1%TFA-MeCN-H2O gradient system, 10–50% MeCN per 0–30 min; flow rate, 7.0 ml/min; detection, UV at 210 nm). […] The methanol solution of the obtained adducts was used for measurement of the CS1 inhibitory activity.

[8] = molecular target: E. histolytica CS3 (Entamoeba histolytica, UniProt Q401L7); test: CS inhibitory activity, recombinant CS3; type: biochemical
Chain of E. histolytica CS3 (Q401L7 entry or part of it): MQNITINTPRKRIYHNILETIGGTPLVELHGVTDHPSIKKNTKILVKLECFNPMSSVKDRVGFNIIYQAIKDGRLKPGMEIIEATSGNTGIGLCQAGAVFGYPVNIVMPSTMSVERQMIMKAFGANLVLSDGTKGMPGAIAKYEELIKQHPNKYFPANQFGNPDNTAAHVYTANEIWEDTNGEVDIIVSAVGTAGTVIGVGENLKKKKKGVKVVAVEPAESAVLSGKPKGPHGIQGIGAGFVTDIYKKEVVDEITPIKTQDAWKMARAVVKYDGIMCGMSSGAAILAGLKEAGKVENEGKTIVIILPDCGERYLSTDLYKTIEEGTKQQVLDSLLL

[9] = tested on: EhCSs; test: EhCS inhibition, isotype not separated (both CSs / EhCS); type: biochemical, Entamoeba histolytica; details: cytochalasans and cerulenin at 100 μg/ml
Excerpt: Expression and purification of recombinant E. histolytica CS1 and CS3, and measurement of inhibitory activity against both enzymes were described previously (Mori et al., [2015]).

[10] = tested on: MRC-5 cells; parameters: method as in Mori et al., 2015; details: strong cytotoxicity, times higher, ref Mori et al., 2015; cited from earlier work
[11] = tested on: EhCSs; parameters: method as in Mori et al., 2015; details: previous enzymatic screening, ref Mori et al., 2015; read-out: IC50 value against CSs; cited from earlier work
[12] = read-out: CS inhibitory activity IC50 CS1 (converted)
[13] = read-out: CS inhibitory activity IC50 CS3 (converted)

Row | Compound | Stability in cysteine-supplemented water (HPLC) [3] | Anti-amebic activity Selectivity Cys(+)/Cys(–) [4] | Anti-amebic activity ED50 Cys (+) [4] [µg/mL] | Anti-amebic activity ED50 Cys (–) [4] [µg/mL] | IC50 [7] [µM] | IC50 [8] [µM] | also measured
1 | CC(=O)c1c(C)c(/C(O)=C2\COc3cc(O)c(O)c(C(=O)O)c3C2=O)cc2c(=O)c3c(C(=O)O)c(O)c(O)cc3oc12 [xanthofulvin] |  |  |  |  |  |  | Antiamebic activity in vitro [1]: did not show the antiamebic activity
2 | C/C=C(\C(=O)O)N1C(=O)C=C(C)C1=O [Pencolide] | most of pencolide was changed to the cysteine adducts |  |  |  |  |  | Cell morphology under a light microscope [2]: apoptosis-like cell death; Selectivity Cys (+)/Cys (–) (cysteine dependence index) [4]: 7.6; IC50 ([4]; Cys (+) medium, read-out: Cytotoxicity IC50 Against Entamoeba histolytica in Cys (+)): 2140 µM; IC50 ([4]; Cys (–) medium, read-out: Cytotoxicity IC50 Against Entamoeba histolytica in Cys (–)): 283 ± 44 µM; IC50 at 2 days [5]: 1900 µM; Selectivity MRC-5/Cys (–) (selectivity index) [6]: 6.7; IC50 [7, 12]: 233 ± 19 µM; IC50 [8, 13]: 217 ± 25 µM
3 | CCC[C@H]1O[C@H](CC(=O)O)CC2=C1C(=O)c1c(O)cccc1C2=O [Deoxyfrenolicin] |  | 2 | 3.9 | 1.7 |  |  | IC50 [7, 12]: 72.7 µM; IC50 [8, 13]: 75.7 µM; Inhibitory activity toward both CS1 and CS3 (in words) [9]: mild inhibition
4 | CC1=CC2C=C(C)C(C)C3C(CC(C)C)NC(=O)C23C(=O)C=CC(=O)C(O)CC1 (stereo not shown) [Aspochalasin B] |  | 3 | 27 | 9.6 | > 250 | > 250 | 
5 | C/C=C/C/C=C/CCC(=O)[C@H]1O[C@H]1C(N)=O [Cerulenin, reference compound] | relatively stable |  | 8.2 | 1.1 | > 448 | > 448 | Inhibitory activity toward both CS1 and CS3 (in words) [9]: neither three cytochalasans nor cerulenin showed the inhibitory activity
6 | C/C1=C\[C@@H](C)C/C=C/[C@H]2[C@@H]3O[C@]3(C)[C@@H](C)[C@H]3[C@H](Cc4c[nH]c5ccccc45)NC(=O)[C@]32C(=O)/C=C/C(=O)[C@@H]1O [Chaetoglobosin A] | totally lost | >50 | >50 | 1.0 | > 189 | > 189 | 
7 | deacetylkinamycin C |  |  |  |  |  |  | ED50 value against amebic trophozoites ([1]; previous study): ca. 20 μM; Cytotoxicity against MRC-5 cells relative to antiamebic/CS activity [10]: > 10 times; IC50 [11]: ~20 µM
8 | CCCCCCCCCc1cc(OC(=O)c2c(CCCCCCCCC)cc(O)cc2OC2OC(CO)C(O)C(O)C2O)cc(O)c1C(=O)O (stereo not shown) [exophillic acid] |  |  |  |  |  |  | Antiamebic activity in vitro [1]: did not show the antiamebic activity
9 | CC1=CC(C)CC=CC2C3OC3(C)C(C)C3C(Cc4c[nH]c5ccccc45)NC(=O)C23C(=O)C=CC(=O)C1 (stereo not shown) [Prochaetoglobosin III] | totally lost | 17 | 44 | 2.6 | > 195 | > 195 | 
